Experimental findings from patent publication US20230257396A1, “MACROCYCLES AND THEIR USE” (BLOSSOMHILL THERAPEUTICS, INC., priority 2020, published 2023) are described below.

Common to all, as to assay: KINOMEscan kinase binding assay (Eurofins/DiscoveRx), % Ctrl
Test [1] has as its target T1, kinases (Homo sapiens, UniProt P00533, DEL752-759).
T1 construct: purchased Eurofins/DiscoveRx; host or cells: E. coli BL21-derived host (T7 phage display) for most kinases; HEK-293 for the rest
The gist of the method: (§1)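 Competition binding: DNA- or phage-tagged kinases (T7 phage in E. coli BL21, or HEK-293-expressed) with immobilized biotinylated ligand beads and test compound, 1 h at room temperature. Bead-bound kinase eluted and quantified by qPCR; % Ctrl = (compound − positive control)/(negative control − positive control) ×100 at a single compound concentration.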

Test [2] has as its target T2, kinases (Homo sapiens, UniProt P00533, T790M).
T2 construct: purchased Eurofins/DiscoveRx; host or cells: E. coli BL21-derived host (T7 phage display) for most kinases; HEK-293 for the rest
In short, it runs like this: as §1

The target of test [3] is T3, kinases (Homo sapiens, UniProt P09619).
T3 construct: purchased Eurofins/DiscoveRx; host or cells: E. coli BL21-derived host (T7 phage display) for most kinases; HEK-293 for the rest
In short, it runs like this: as §1

Test [4] concerns the target T4, kinases (Homo sapiens, UniProt P10721, D816H).
T4 construct: purchased Eurofins/DiscoveRx; host or cells: E. coli BL21-derived host (T7 phage display) for most kinases; HEK-293 for the rest
In short, it runs like this: as §1

Test [5] concerns the target T5, kinases (Homo sapiens, UniProt P36888, D835H).
T5 construct: purchased Eurofins/DiscoveRx; host or cells: E. coli BL21-derived host (T7 phage display) for most kinases; HEK-293 for the rest
T5 sequence (P36888 27-993 D835H): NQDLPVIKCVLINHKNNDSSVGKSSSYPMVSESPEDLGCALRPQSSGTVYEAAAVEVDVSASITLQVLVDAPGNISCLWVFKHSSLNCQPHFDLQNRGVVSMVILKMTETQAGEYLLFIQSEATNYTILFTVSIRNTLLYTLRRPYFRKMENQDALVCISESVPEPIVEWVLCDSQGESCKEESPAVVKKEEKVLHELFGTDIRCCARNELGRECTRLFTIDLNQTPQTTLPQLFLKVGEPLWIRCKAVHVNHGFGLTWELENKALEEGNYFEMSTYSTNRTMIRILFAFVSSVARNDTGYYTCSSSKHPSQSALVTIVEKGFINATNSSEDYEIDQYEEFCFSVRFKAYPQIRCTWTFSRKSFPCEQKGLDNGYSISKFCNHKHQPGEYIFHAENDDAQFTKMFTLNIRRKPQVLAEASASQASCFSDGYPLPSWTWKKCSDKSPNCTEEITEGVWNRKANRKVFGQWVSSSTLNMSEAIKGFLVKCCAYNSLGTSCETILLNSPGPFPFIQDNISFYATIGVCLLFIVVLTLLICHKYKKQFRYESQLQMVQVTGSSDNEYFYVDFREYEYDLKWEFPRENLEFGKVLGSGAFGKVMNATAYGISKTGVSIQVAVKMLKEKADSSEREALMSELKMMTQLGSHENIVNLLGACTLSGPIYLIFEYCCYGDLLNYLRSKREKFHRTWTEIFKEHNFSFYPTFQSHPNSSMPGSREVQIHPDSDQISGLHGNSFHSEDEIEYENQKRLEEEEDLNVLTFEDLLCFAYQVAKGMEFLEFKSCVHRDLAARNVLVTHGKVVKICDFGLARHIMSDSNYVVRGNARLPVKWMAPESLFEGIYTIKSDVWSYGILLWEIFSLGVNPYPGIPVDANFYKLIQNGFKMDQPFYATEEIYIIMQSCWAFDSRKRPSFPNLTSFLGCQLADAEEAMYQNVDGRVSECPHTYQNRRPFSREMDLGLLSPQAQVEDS
The gist of the method:
as §1

Test [6] deals with T6, kinases (Homo sapiens, UniProt P36888, D835V).
T6 construct: purchased Eurofins/DiscoveRx; host or cells: E. coli BL21-derived host (T7 phage display) for most kinases; HEK-293 for the rest
T6 sequence (P36888 27-993 D835V): T5 sequence (P36888 27-993 D835H) with H809V
In short, it runs like this:
as §1

Setting [7] is: target EGFR(S752-I759del); 1 μM.

Where a chain is given by its changes, count along the chain named.

T4 sequence (P10721 26-976 D816H): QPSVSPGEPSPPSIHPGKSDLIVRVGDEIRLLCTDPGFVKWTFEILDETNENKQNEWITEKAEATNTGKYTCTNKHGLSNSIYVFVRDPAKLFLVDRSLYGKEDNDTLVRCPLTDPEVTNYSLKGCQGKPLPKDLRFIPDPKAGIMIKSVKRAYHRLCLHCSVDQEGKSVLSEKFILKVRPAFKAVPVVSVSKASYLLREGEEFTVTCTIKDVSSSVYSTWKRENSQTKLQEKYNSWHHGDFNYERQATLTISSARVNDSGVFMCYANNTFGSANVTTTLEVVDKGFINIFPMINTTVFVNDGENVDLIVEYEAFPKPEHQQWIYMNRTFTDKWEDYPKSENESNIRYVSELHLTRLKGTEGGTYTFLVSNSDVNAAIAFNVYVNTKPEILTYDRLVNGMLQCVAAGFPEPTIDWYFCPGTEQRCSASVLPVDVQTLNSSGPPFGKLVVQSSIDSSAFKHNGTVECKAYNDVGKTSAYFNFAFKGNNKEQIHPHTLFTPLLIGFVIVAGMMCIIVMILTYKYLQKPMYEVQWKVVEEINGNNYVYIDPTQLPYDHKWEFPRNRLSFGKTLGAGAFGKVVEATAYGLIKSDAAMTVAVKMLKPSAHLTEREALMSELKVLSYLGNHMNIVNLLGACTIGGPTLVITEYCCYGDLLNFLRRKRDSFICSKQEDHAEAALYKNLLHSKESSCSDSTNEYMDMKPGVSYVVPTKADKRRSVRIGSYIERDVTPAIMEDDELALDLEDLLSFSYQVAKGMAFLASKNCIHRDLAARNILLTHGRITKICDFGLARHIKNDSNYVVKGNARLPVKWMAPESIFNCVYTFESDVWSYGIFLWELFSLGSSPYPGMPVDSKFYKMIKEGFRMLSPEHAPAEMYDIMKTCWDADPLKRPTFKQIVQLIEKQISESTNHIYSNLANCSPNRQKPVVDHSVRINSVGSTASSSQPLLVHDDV
T3 sequence (P09619 33-1106): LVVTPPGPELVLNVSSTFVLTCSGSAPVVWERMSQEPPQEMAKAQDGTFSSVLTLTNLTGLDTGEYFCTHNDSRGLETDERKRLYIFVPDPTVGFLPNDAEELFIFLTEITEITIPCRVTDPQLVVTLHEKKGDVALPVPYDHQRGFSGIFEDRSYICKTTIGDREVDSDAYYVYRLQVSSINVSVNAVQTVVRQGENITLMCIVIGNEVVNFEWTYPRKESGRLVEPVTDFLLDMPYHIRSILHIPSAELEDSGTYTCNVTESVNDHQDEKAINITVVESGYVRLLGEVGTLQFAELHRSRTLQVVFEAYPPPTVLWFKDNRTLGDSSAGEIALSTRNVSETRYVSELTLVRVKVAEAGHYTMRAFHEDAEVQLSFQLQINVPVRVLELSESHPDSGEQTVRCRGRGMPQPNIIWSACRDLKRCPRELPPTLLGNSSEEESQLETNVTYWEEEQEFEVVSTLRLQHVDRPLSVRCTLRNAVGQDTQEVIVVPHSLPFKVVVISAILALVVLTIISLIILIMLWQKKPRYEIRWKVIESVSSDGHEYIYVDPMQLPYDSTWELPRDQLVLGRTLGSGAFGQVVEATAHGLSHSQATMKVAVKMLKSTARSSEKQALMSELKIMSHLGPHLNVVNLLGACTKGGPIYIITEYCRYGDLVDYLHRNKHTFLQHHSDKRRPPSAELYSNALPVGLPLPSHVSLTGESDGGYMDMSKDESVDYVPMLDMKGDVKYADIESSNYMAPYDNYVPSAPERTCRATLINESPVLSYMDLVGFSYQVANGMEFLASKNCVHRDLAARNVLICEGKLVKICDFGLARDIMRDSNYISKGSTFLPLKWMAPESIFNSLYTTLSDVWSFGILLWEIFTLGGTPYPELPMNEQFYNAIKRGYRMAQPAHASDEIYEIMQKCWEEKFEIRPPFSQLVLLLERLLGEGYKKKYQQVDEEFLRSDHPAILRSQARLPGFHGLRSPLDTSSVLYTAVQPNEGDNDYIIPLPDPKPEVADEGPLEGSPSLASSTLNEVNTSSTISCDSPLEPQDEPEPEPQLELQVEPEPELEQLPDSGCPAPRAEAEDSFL

Turning to `CN1CCSCCOc2cc3c(cc2Cl)NC(=O)/C3=C\c2[nH]ccc2C1=O` [Ex. 153], on kinases [1] (setting [7]), the “% Ctrl, EGFR(S752-I759del)” value is given as 100 % Ctrl. Besides, at kinases [2] (target EGFR(T790M); 1 μM), the “% Ctrl, EGFR(T790M)” value was determined as 83 % Ctrl. Moreover, the “% Ctrl, PDGFRB” value at kinases [3] (target PDGFRB; 1 μM) is 0.5 % Ctrl. Further, the “% Ctrl, KIT(D816H)” value on kinases [4] (target KIT(D816H); 1 μM) is 27 % Ctrl. The “% Ctrl, FLT3(D835H)” value at kinases [5] (target FLT3(D835H); 1 μM) amounted to 0.3 % Ctrl. The “% Ctrl, FLT3(D835V)” value at kinases [6] (target FLT3(D835V); 1 μM) worked out at 0.3 % Ctrl.
With `Cc1cc2c([nH]1)/C=C1\C(=O)Nc3cc(Cl)c(cc31)OCCO[C@@H](C(=O)N1CCN(C)CC1)CN(C)C2=O` [Ex. 138, [7R,16a(17)Z]-19-chloro-2,5-dimethyl-7-(4-methylpipearazine-1-carbonyl)-6,7,9,10-tetrahydro-1H-12,14-(ethanediylidene)dipyrrolo[3,2-i:3′,4′-l][1,4,7]dioxazacyclopentadecine-4,16(5H,15H)-dione], at kinases [1] (setting [7]), the “% Ctrl, EGFR(S752-I759del)” value is given as 92 % Ctrl. The “% Ctrl, EGFR(T790M)” value at kinases [2] (target EGFR(T790M); 1 μM) is 94 % Ctrl. Besides, the “% Ctrl, PDGFRB” value on kinases [3] (target PDGFRB; 1 μM) is listed as 95 % Ctrl. Further, the “% Ctrl, KIT(D816H)” value on kinases [4] (target KIT(D816H); 1 μM) amounted to 82 % Ctrl. Moreover, the “% Ctrl, FLT3(D835H)” value on kinases [5] (target FLT3(D835H); 1 μM) was found to be 73 % Ctrl. Also, the “% Ctrl, FLT3(D835V)” value at kinases [6] (target FLT3(D835V); 1 μM) is recorded as 18 % Ctrl.
As to `Cc1cc2c([nH]1)/C=C1\C(=O)Nc3ccc(cc31)-c1cnn(C)c1OCCCN(C)C2=O` [Ex. 166, [3a(4)Z]-9,14-dimethyl-9,10,11,12-tetrahydro-14H-1,17-(ethanediylidene)pyrazolo[4,3-n]dipyrrolo[3,2-g:3′,4′-j][1,5]oxazacyclopentadecine-3,8(2H,5H)-dione], the “% Ctrl, EGFR(S752-I759del)” value at kinases [1] (1 μM; target EGFR(S752-I759del)) was determined as 93 % Ctrl. Further, the “% Ctrl, EGFR(T790M)” value at kinases [2] (1 μM; target EGFR(T790M)) was 26 % Ctrl. Further, the “% Ctrl, PDGFRB” value at kinases [3] (1 μM; target PDGFRB) is on record as 16 % Ctrl. For the same compound, the “% Ctrl, KIT(D816H)” value at kinases [4] (1 μM; target KIT(D816H)) was found to be 10 % Ctrl. Moreover, the “% Ctrl, FLT3(D835H)” value at kinases [5] (1 μM; target FLT3(D835H)) was determined as 0.7 % Ctrl. Also, the “% Ctrl, FLT3(D835V)” value on kinases [6] (1 μM; target FLT3(D835V)) is given as 1.8 % Ctrl.
As to `Cc1cc2c([nH]1)/C=C1\C(=O)Nc3ccc(cc31)-c1ccnn1CCOCCNC2=O` [Ex.39, [19a(20)Z]-2-methyl-6,7,9,10-tetrahydro-1H-15,17-(ethanediylidene)pyrazolo[1,5-d]dipyrrolo[3,4-h:2′,3′-k][1,4,14]oxadiazacyclohexadecine-4,19(5H,18H)-dione], the “% Ctrl, EGFR(S752-I759del)” value on kinases [1] (1 μM; EGFR(S752-I759del)) is recorded as 80 % Ctrl. Besides, the “% Ctrl, EGFR(T790M)” value on kinases [2] (1 μM; EGFR(T790M)) was 99 % Ctrl. Moreover, the “% Ctrl, PDGFRB” value at kinases [3] (1 μM; PDGFRB) amounted to 91 % Ctrl. Besides, the “% Ctrl, KIT(D816H)” value at kinases [4] (1 μM; KIT(D816H)) stood at 83 % Ctrl. Also, the “% Ctrl, FLT3(D835H)” value on kinases [5] (1 μM; FLT3(D835H)) was found to be 85 % Ctrl. Also, at kinases [6] (1 μM; FLT3(D835V)), the “% Ctrl, FLT3(D835V)” value is given as 35 % Ctrl.
Regarding `Cc1cc2c([nH]1)/C=C1\C(=O)Nc3cc(Cl)c(cc31)OCCO[C@@H](C(=O)NC1CNC1)CN(C)C2=O` [Ex. 133, [7R,16a(17)Z]-N-(azetidin-3-yl)-19-chloro-2,5-dimethyl-4,16-dioxo-4,5,6,7,9,10,15,16-octahydro-1H-12,14-(ethanediylidene)dipyrrolo[3,2-i:3′,4′-l][1,4,7]dioxazacyclopentadecine-7-carboxamide], the “% Ctrl, EGFR(S752-I759del)” value at kinases [1] (1 μM; EGFR(S752-I759del)) is reported as 90 % Ctrl. In addition, on kinases [2] (1 μM; EGFR(T790M)), the “% Ctrl, EGFR(T790M)” value is listed as 98 % Ctrl. The “% Ctrl, PDGFRB” value at kinases [3] (1 μM; PDGFRB) is 60 % Ctrl. Also, the “% Ctrl, KIT(D816H)” value at kinases [4] (1 μM; KIT(D816H)) came out at 43 % Ctrl. The “% Ctrl, FLT3(D835H)” value on kinases [5] (1 μM; FLT3(D835H)) turned out to be 39 % Ctrl. Also, the “% Ctrl, FLT3(D835V)” value at kinases [6] (1 μM; FLT3(D835V)) is 2.3 % Ctrl.
`CN1CCOCCOc2cc3c(cc2Cl)NC(=O)/C3=C\c2[nH]ccc2C1=O` [Ex. 143, [16a(17)Z]-19-chloro-2,5-dimethyl-6,7,9,10-tetrahydro-1H-12,14-(ethanediylidene)dipyrrolo[3,2-i:3′,4′-l][1,4,7]oxathiazacyclopentadecine-4,16(5H,15H)-dione]: on kinases [1] (setting [7]), the “% Ctrl, EGFR(S752-I759del)” value is reported as 86 % Ctrl. In addition, the “% Ctrl, EGFR(T790M)” value at kinases [2] (target EGFR(T790M); 1 μM) is given as 100 % Ctrl. Further, on kinases [3] (target PDGFRB; 1 μM), the “% Ctrl, PDGFRB” value stood at 32 % Ctrl. In addition, the “% Ctrl, KIT(D816H)” value at kinases [4] (target KIT(D816H); 1 μM) came to 59 % Ctrl. The “% Ctrl, FLT3(D835H)” value on kinases [5] (target FLT3(D835H); 1 μM) is given as 0.8 % Ctrl. Moreover, the “% Ctrl, FLT3(D835V)” value at kinases [6] (target FLT3(D835V); 1 μM) was 0.3 % Ctrl.
With `Cc1cc2c([nH]1)/C=C1\C(=O)Nc3ccc(cc31)OCCOCCN(C)C2=O` [Ex.91, [16a(17)Z]-2,5-dimethyl-6,7,9,10-tetrahydro-1H-12,14-(ethanediylidene)dipyrrolo[3,2-i:3′,4′-l][1,4,7]dioxazacyclopentadecine-4,16(5H,15H)-dione], the “% Ctrl, EGFR(S752-I759del)” value on kinases [1] (1 μM; EGFR(S752-I759del)) stood at 63 % Ctrl. Moreover, the “% Ctrl, EGFR(T790M)” value at kinases [2] (1 μM; EGFR(T790M)) turned out to be 82 % Ctrl. At kinases [3] (1 μM; PDGFRB), the “% Ctrl, PDGFRB” value is reported as 55 % Ctrl. Also, the “% Ctrl, KIT(D816H)” value on kinases [4] (1 μM; KIT(D816H)) amounted to 41 % Ctrl. For the same compound, on kinases [5] (1 μM; FLT3(D835H)), the “% Ctrl, FLT3(D835H)” value worked out at 1.2 % Ctrl. For the same compound, at kinases [6] (1 μM; FLT3(D835V)), the “% Ctrl, FLT3(D835V)” value is reported as 0.05 % Ctrl.
For the compound `Cc1cc2c([nH]1)/C=C1\C(=O)Nc3cc(Cl)c(cc31)OCCOCCN(C)C2=O` [Ex. 131, [16a(17)Z]-19-chloro-2,5-dimethyl-6,7,9,10-tetrahydro-1H-12,14-(ethanediylidene)dipyrrolo[3,2-i:3′,4′-l][1,4,7]dioxazacyclopentadecine-4,16(5H,15H)-dione], the “% Ctrl, EGFR(S752-I759del)” value at kinases [1] (1 μM; EGFR(S752-I759del)) worked out at 70 % Ctrl. For the same compound, the “% Ctrl, EGFR(T790M)” value on kinases [2] (1 μM; EGFR(T790M)) was 61 % Ctrl. Moreover, the “% Ctrl, PDGFRB” value on kinases [3] (1 μM; PDGFRB) came to 1.4 % Ctrl. In addition, at kinases [4] (1 μM; KIT(D816H)), the “% Ctrl, KIT(D816H)” value was found to be 6.2 % Ctrl. Further, the “% Ctrl, FLT3(D835H)” value at kinases [5] (1 μM; FLT3(D835H)) is 0 % Ctrl. The “% Ctrl, FLT3(D835V)” value at kinases [6] (1 μM; FLT3(D835V)) is given as 0 % Ctrl.
Consider `Cc1nn(C)c2c1-c1ccc3c(c1)/C(=C/c1[nH]ccc1C(=O)N(C)CCCO2)C(=O)N3` [Ex. 150, [3a(4)Z]-9,14,16-trimethyl-10,11,13,14-tetrahydro-2H-1,17-(ethanediylidene)pyrazolo[4,3-m]dipyrrolo[3,2-f:3′,4′-i][1,4]oxazacyclopentadecine-3,8(5H,9H)-dione], for which, at kinases [1] (setting [7]), the “% Ctrl, EGFR(S752-I759del)” value was found to be 100 % Ctrl. Further, the “% Ctrl, EGFR(T790M)” value at kinases [2] (target EGFR(T790M); 1 μM) came to 86 % Ctrl. Moreover, at kinases [3] (target PDGFRB; 1 μM), the “% Ctrl, PDGFRB” value amounted to 96 % Ctrl. Besides, the “% Ctrl, KIT(D816H)” value on kinases [4] (target KIT(D816H); 1 μM) was determined as 87 % Ctrl. In addition, the “% Ctrl, FLT3(D835H)” value at kinases [5] (target FLT3(D835H); 1 μM) stood at 62 % Ctrl. In addition, on kinases [6] (target FLT3(D835V); 1 μM), the “% Ctrl, FLT3(D835V)” value is 13 % Ctrl.
